{"source": "patent US20250145570A1", "about": "“DHODH INHIBITOR POLYMORPH” (Aslan Pharmaceuticals Pte Ltd, priority 2022, published 2025)", "key": {"[1]": {"test": "Particle size distribution (PSD)", "format": "physicochemical"}, "[2]": {"test": "Polymorph screening experiments (XRPD of returned solids)", "format": "physicochemical", "conditions": "for XRPD after thermal cycling: 5-40° C., ~72 hours, THP and THF; for XRPD after 2-week slurry: 40° C.; for XRPD (Grind): fast evaporation at 100° C., post-grinding", "method": "A solvent solubility screen was carried out on the farudodstat DSP polymorph (also referred to as CS-276-22 in the following examples) to determine its solubility in various solvents, and to gain an initial assessment of the polymorphic landscape. To ˜20 mg samples of predominantly amorphous farudodstat, aliquots (2×50 μL and then 100 μL) of the chosen solvents were added until dissolution was observed, or 2 mL had been added. The samples were manually agitated and heated to ˜40° C. in a block attached to a water bath in between each aliquot Clear solutions were uncapped and allowed to evaporate at room temperature. Any solids obtained from slurries and from evaporation were analysed by X-ray powder diffraction (XRPD).\n16×20 mg of the farudodstat DSP polymorph sample was weighed into 2 mL bead mill vials and was milled for 1.5 hrs for amorphization. Next, 5 μL of appropriate solvents (see Table 6) were added to each sample. The samples were then bead milled using the following procedure: • 1. 2 stainless steel beads were added to each vial. • 2. 4500 rpm • 3. 10×90 s cycles • 4. 10 s hold between each cycle • 5. Repeated 4× to give 1 hr milling time\n16×20 mg of farudodstat sample was first weighed into 2 mL bead mill vials and was milled to prepare amorphous material. To all the […] bead milled samples, appropriate solvents (see Table 6) were added in 100 μL aliquots until a mobile slurry was obtained without any dissolution observed. Between additions, the samples were stirred at 40° C. Samples were then stirred, and temperature cycled between 5-40° C. (0.1° C./min heating/cooling rate, 1 hour hold at each temperature) for ˜72 hours.\nAfter 48 hours, samples were checked. If necessary, additional solids added. Non-mobile solid in solution samples were agitated using a spatula until a mobile slurry was obtained. Slurries were isolated by centrifugation ([…] nylon filters) and the solids analysed by XRPD. Post XRPD analysis, the XRPD plate was dried at 40° C. under vacuum for 48 hours and the solids reanalysed by XRPD to give an indication of form stability.\nThe saturate isolated from the previous thermal cycling experiment was left to evaporate at room temperature. Any solids returned from evaporation were analysed by XRPD.\n16×20 mg of farudodstat sample was weighed into 2 mL bead mill vials and then milled to prepare amorphous material. To the bead milled sample, appropriate solvent was added in 100 μL aliquots until a mobile slurry was obtained without any dissolution observed. Between additions, the samples were stirred at 50° C. and 100° C. depending upon the boiling point of the solvent to dissolve the API in the solvent system. Samples were checked and slurries were isolated by centrifugation ([…] Nylon filters) and the saturates were put in an HPLC vials. Next, the vials were uncapped and were left to evaporate at 50° C. using a water bath. Finally, after the complete evaporation of solvent, the remaining solid were analysed by XRPD to check for appearance of any new patterns.\n20 mg×5 of farudodstat sample was weighed into 2 ml bead mill vials and milled to prepare amorphous material. To the bead milled sample, appropriate solvent was added in 100 μL aliquots until a mobile slurry was obtained without any dissolution observed. Between additions, the samples were stirred at 100° C. to dissolve the API in the solvent system. Samples were checked and slurries were isolated by centrifugation (0.22 μm Nylon filters) and the saturates were put in an HPLC vials. The vials were then uncapped and were left to evaporate at 100° C. using a sand bath. After the complete evaporation of solvent, the remaining solid were analysed by XRPD to check for appearance of any new patterns.\n20 mg×16 farudodstat sample was weighed into 2 ml bead mill vials and milled to prepare amorphous material. The appropriate solvent was added in 100 μL aliquots until a mobile slurry was obtained without any dissolution observed. […]"}}, "data": [{"smiles": "COc1cccc(-c2cc(F)c(Nc3ncccc3C(=O)O)c(F)c2)c1", "note": "[1302NC0160A-01]", "values": [{"measurement": "Particle Size D10", "setting": "[1]", "value": 2.54, "unit": "μm"}, {"measurement": "Particle Size D50", "setting": "[1]", "value": 5.97, "unit": "μm"}, {"measurement": "Particle Size D90", "setting": "[1]", "value": 11.79, "unit": "μm"}, {"measurement": "Particle Size MV", "setting": "[1]", "value": 6.70, "unit": "μm"}]}, {"smiles": "COc1cccc(-c2cc(F)c(Nc3ncccc3C(=O)O)c(F)c2)c1", "note": "[1412NC0160A-01]", "values": [{"measurement": "Particle Size D10", "setting": "[1]", "value": 32.34, "unit": "μm"}, {"measurement": "Particle Size D50", "setting": "[1]", "value": 160.95, "unit": "μm"}, {"measurement": "Particle Size D90", "setting": "[1]", "value": 238.22, "unit": "μm"}, {"measurement": "Particle Size MV", "setting": "[1]", "value": 151.47, "unit": "μm"}]}, {"smiles": "COc1cccc(-c2cc(F)c(Nc3ncccc3C(=O)O)c(F)c2)c1", "note": "[1412NC0160A-02]", "values": [{"measurement": "Particle Size D10", "setting": "[1]", "value": 0.90, "unit": "μm"}, {"measurement": "Particle Size D50", "setting": "[1]", "value": 3.46, "unit": "μm"}, {"measurement": "Particle Size D90", "setting": "[1]", "value": 45.05, "unit": "μm"}, {"measurement": "Particle Size MV", "setting": "[1]", "value": 13.27, "unit": "μm"}]}, {"smiles": "COc1cccc(-c2cc(F)c(Nc3ncccc3C(=O)O)c(F)c2)c1", "note": "[farudodstat, 2-(3,5-difluoro-3′-methoxybiphenyl-4-ylamino) nicotinic acid]", "values": [{"measurement": "XRPD after room temperature evaporation", "setting": "[2]; 1,1,1.3.3.3-Hexafluoro-2-Propanol, 2-Methyl THF, DMF, THF and THP", "value": "returned to Pattern 1"}, {"measurement": "XRPD after room temperature evaporation", "setting": "[2]; 1,1-Dimethoxymethane, 1,3-Dioxolane, 1,4-Dioxane", "value": "showed preferred orientation of Pattern 1 but returned to Pattern 1 after grinding"}, {"measurement": "XRPD after 2-week slurry then fast evaporation at 100° C.", "setting": "[2]; 1,1-Dimethoxymethane, 1,3-Dioxolane, 2-Ethoxyethanol, 1,1,1.3.3.3-Hexafluoro-2-Propanol, DMA, DMF and NMP", "value": "showed preferred orientation. However, post-grinding returned these to Pattern 1"}, {"measurement": "XRPD of solids, solvent solubility assessment", "setting": "[2]; 1,1-Dimethoxymethane, 1,4-Dioxane, 2-Ethoxyethanol, 1,1,1,3,3,3-Hexafluoro-2-Propanol, 2-Methyl THF, Benzyl Alcohol", "value": "remained amorphous"}, {"measurement": "XRPD after fast evaporation at 50° C.", "setting": "[2]; 1,1-dimethoxymethane and 2-propanol", "value": "showed amorphous pattern"}, {"measurement": "XRPD after fast evaporation at 50° C.", "setting": "[2]; 1,3-dioxlane, 1,4-dioxane", "value": "showed preferred orientation"}, {"measurement": "XRPD after fast evaporation at 50° C.", "setting": "[2]; 2-Ethoxyethanol, new peak at 21.1° 2θ", "value": "potential new pattern"}, {"measurement": "XRPD of solids, solvent solubility assessment", "setting": "[2]; 2-propanol, 48% Methanol:52% Water, 93% Ethanol:7% Water, 98.5% Ethanol:1.5% Water, Methanol, tert-Butylmethyl Ether", "value": "returned to Pattern 1"}, {"measurement": "XRPD after thermal cycling", "setting": "[2]; 1,4-dioxane", "value": "remained semi-crystalline"}, {"measurement": "XRPD after thermal cycling", "setting": "[2]; solvents other than 1,4-dioxane", "value": "returned to Pattern 1"}, {"measurement": "XRPD after 2-week slurry", "setting": "[2]; 93% Ethanol:7% Water, 48% Methanol:52% Water, 2-Propanol, 2-Methyl THF", "value": "returned to Pattern 1"}, {"measurement": "XRPD after 2-week slurry", "setting": "[2]; THF and THP", "value": "additional peaks with Pattern 1 at 8.1° 2θ (Pattern 1+)"}, {"measurement": "XRPD after fast evaporation at 50° C.", "setting": "[2]; DMF", "value": "pattern 1 with significant preferred orientation"}, {"measurement": "XRPD after anti-solvent addition + fast cool", "setting": "[2]; MEK as anti-solvent in 1,4-dioxane, freezer 72 hrs", "value": "consistent with Pattern 1"}, {"measurement": "XRPD after fast evaporation at 50° C.", "setting": "[2]; THP, THF, 2-methyl THF and 1,1,1.3.3.3-Hexafluoro-2-Propanol", "value": "returned to Pattern 1"}, {"measurement": "XRPD after anti-solvent addition", "setting": "[2]; acetone as anti-solvent, 1,1,1.3.3.3-Hexafluoro-2-Propanol", "value": "returned to Pattern 1 with additional peaks"}, {"measurement": "XRPD after solvent drop grinding", "setting": "[2]; all 16 solvent systems", "value": "returned to pattern 1"}, {"measurement": "XRPD after bead milling", "setting": "[2]; bead milling", "value": "less crystalline material"}, {"measurement": "XRPD after fast cooling", "setting": "[2]; crash cooling of 1,3-dioxolane saturate, freezer 72 hrs", "value": "preferred orientation of Pattern 1"}, {"measurement": "XRPD of solids, solvent solubility assessment", "setting": "[2]; evaporation of clear solution of THF and THP", "value": "showed preferred orientation, but later returned to Pattern 1 post grinding"}, {"measurement": "XRPD (Grind)", "setting": "[2]; N,N′-Dimethylacetamide", "value": "Pattern 1"}, {"measurement": "XRPD (Grind)", "setting": "[2]; N,N′-Dimethylformamide", "value": "Pattern 1"}, {"measurement": "XRPD after anti-solvent addition at 50° C.", "setting": "[2]; water addition to all the 16 saturates", "value": "returned to Pattern 1"}, {"measurement": "XRPD after anti-solvent addition", "setting": "[2]; water, room temperature, except 2-Methyl THF, 2-Propanol, 48% Methanol:52% Water, 93% Ethanol:7% Water, Benzyl Alcohol (clear solutions)", "value": "returned to Pattern 1"}]}]}
